≈ marks a conversion by molar mass, not a printed value. Calls of active or inactive are those of the source. The rule behind the calls is not given here.
What was measured:
[1] = tested on: Candida tropicalis; assay: Antifungal activity against Candida tropicalis 156 after 24 hrs by microdilution broth method; assay type: functional; details: Candida tropicalis, 156, 24 h
[2] = tested on: Candida tropicalis; assay: Antifungal activity against Candida tropicalis 156 after 48 hrs by microdilution broth method; assay type: functional; details: Candida tropicalis, 156, 48 h
[3] = tested on: Pichia kudriavzevii; assay: Antifungal activity against Candida krusei E28 after 24 hrs by microdilution broth method; assay type: functional; details: E28, 24 h
[4] = tested on: Pichia kudriavzevii; assay: Antifungal activity against Candida krusei E28 after 48 hrs by microdilution broth method; assay type: functional; details: E28, 48 h
[5] = tested on: Nakaseomyces glabratus; assay: Antifungal activity against Candida glabrata 20/I after 24 hrs by microdilution broth method; assay type: functional
[6] = tested on: Nakaseomyces glabratus; assay: Antifungal activity against Candida glabrata 20/I after 48 hrs by microdilution broth method; assay type: functional
[7] = tested on: Trichophyton mentagrophytes; assay: Antifungal activity against Trichophyton mentagrophytes 445 after 72 hrs by microdilution broth method; assay type: functional; details: Trichophyton mentagrophytes, 445, 72 h
[8] = tested on: Trichophyton mentagrophytes; assay: Antifungal activity against Trichophyton mentagrophytes 445 after 120 hrs by microdilution broth method; assay type: functional; details: Trichophyton mentagrophytes, 445, 120 h
[9] = tested on: Mycobacterium tuberculosis; assay: Antimycobacterial activity against Mycobacterium tuberculosis H37Rv 331/88 after 14 days by micromethod; assay type: functional; details: H37Rv 331/88, 336 h
[10] = tested on: Mycobacterium tuberculosis; assay: Antimycobacterial activity against Mycobacterium tuberculosis H37Rv 331/88 after 21 days by micromethod; assay type: functional; details: H37Rv 331/88, 504 h
[11] = tested on: Mycobacterium avium; assay: Antimycobacterial activity against Mycobacterium avium 330/88 after 14 days by micromethod; assay type: functional; details: 330/88, 336 h
[12] = tested on: Mycobacterium avium; assay: Antimycobacterial activity against Mycobacterium avium 330/88 after 21 days by micromethod; assay type: functional; details: 330/88, 504 h
[13] = tested on: Mycobacterium kansasii; assay: Antimycobacterial activity against Mycobacterium kansasii 6509/80 after 7 days by micromethod; assay type: functional; details: 6509/80, 168 h
[14] = tested on: Mycobacterium kansasii; assay: Antimycobacterial activity against Mycobacterium kansasii 6509/80 after 14 days by micromethod; assay type: functional; details: 6509/80, 336 h
[15] = tested on: Mycobacterium kansasii; assay: Antimycobacterial activity against Mycobacterium kansasii 6509/80 after 21 days by micromethod; assay type: functional; details: 6509/80, 504 h
[16] = tested on: Mycobacterium kansasii; assay: Antimycobacterial activity against Mycobacterium kansasii 6509/96 after 7 days by micromethod; assay type: functional; details: 6509/96, 168 h
[17] = tested on: Mycobacterium kansasii; assay: Antimycobacterial activity against Mycobacterium kansasii 6509/96 after 14 days by micromethod; assay type: functional; details: 6509/96, 336 h
[18] = tested on: Mycobacterium kansasii; assay: Antimycobacterial activity against Mycobacterium kansasii 6509/96 after 21 days by micromethod; assay type: functional; details: 6509/96, 504 h
[19] = Solubility of the compound in Mueller-Hinton broth; assay type: physicochemical
[20] = tested on: HepG2; assay: Cytostatic activity against human HepG2 cells incubated overnight followed by compound wash measured after 72 hrs by MTT assay; assay type: ADME, cell-based; details: HepG2, 72 h
[21] = tested on: MONO-MAC-6; assay: Cytostatic activity against human MONO-MAC-6 cells incubated overnight followed by compound wash measured after 72 hrs by MTT assay; assay type: ADME, cell-based; details: MONO-MAC-6, 72 h
[22] = tested on: HepG2; assay: Cytotoxicity against human HepG2 cells after overnight incubation by MTT assay; assay type: cell-based
[23] = tested on: MONO-MAC-6; assay: Cytotoxicity against human MONO-MAC-6 cells after overnight incubation by MTT assay; assay type: functional, cell-based
[24] = Cytotoxicity against mouse bone marrow macrophages after overnight incubation by MTT assay; details: BMDM
[25] = Selectivity index, ratio of IC50 for human HepG2 cells to MIC for Mycobacterium tuberculosis H37Rv 331/88; assay type: toxicity; details: read-out: Selectivity Index
[26] = tested on: Staphylococcus aureus; assay: Antibacterial activity against gram-positive Staphylococcus aureus CCM 4516/08 after 24 hrs by microdilution broth method; assay type: functional; details: CCM 4516/08, 24 h
[27] = tested on: Staphylococcus aureus; assay: Antibacterial activity against gram-positive Staphylococcus aureus CCM 4516/08 after 48 hrs by microdilution broth method; assay type: functional; details: CCM 4516/08, 48 h
[28] = tested on: Staphylococcus aureus; assay: Antibacterial activity against gram-positive methicillin-resistant Staphylococcus aureus H 5996/08 after 24 hrs by microdilution broth method; assay type: functional; details: H 5996/08, 24 h
[29] = tested on: Staphylococcus aureus; assay: Antibacterial activity against gram-positive methicillin-resistant Staphylococcus aureus H 5996/08 after 48 hrs by microdilution broth method; assay type: functional; details: H 5996/08, 48 h
[30] = tested on: Staphylococcus epidermidis; assay: Antibacterial activity against gram-positive Staphylococcus epidermidis H 6966/08 after 24 hrs by microdilution broth method; assay type: functional; details: H 6966/08, 24 h
[31] = tested on: Staphylococcus epidermidis; assay: Antibacterial activity against gram-positive Staphylococcus epidermidis H 6966/08 after 48 hrs by microdilution broth method; assay type: functional; details: H 6966/08, 48 h
[32] = tested on: Enterococcus faecalis; assay: Antibacterial activity against gram-positive Enterococcus faecalis J 14365/08 after 24 hrs by microdilution broth method; assay type: functional; details: J 14365/08, 24 h
[33] = tested on: Enterococcus faecalis; assay: Antibacterial activity against gram-positive Enterococcus faecalis J 14365/08 after 48 hrs by microdilution broth method; assay type: functional; details: J 14365/08, 48 h
[34] = tested on: Escherichia coli; assay: Antibacterial activity against gram-negative Escherichia coli CCM 4517 after 24 hrs by microdilution broth method; assay type: functional; details: CCM 4517, 24 h
[35] = tested on: Escherichia coli; assay: Antibacterial activity against gram-negative Escherichia coli CCM 4517 after 48 hrs by microdilution broth method; assay type: functional; details: CCM 4517, 48 h
[36] = tested on: Klebsiella pneumoniae; assay: Antibacterial activity against gram-negative Klebsiella pneumoniae D 11750/08 after 24 to 48 hrs by microdilution broth method; assay type: functional, organism-based
[37] = tested on: Pseudomonas aeruginosa; assay: Antibacterial activity against gram-negative Pseudomonas aeruginosa CCM 1961 after 48 hrs by microdilution broth method; assay type: functional, organism-based
[38] = tested on: Klebsiella pneumoniae; assay: Antibacterial activity against extended spectrum beta-lactamase-positive Klebsiella pneumoniae J 14368/08 after 24 to 48 hrs by microdilution broth method; assay type: functional, organism-based
[39] = tested on: Candida albicans; assay: Antifungal activity against Candida albicans ATCC 44859 after 24 to 48 hrs by microdilution broth method; assay type: functional, organism-based
[40] = tested on: Trichosporon asahii; assay: Antifungal activity against Trichosporon asahii 1188 after 24 to 48 hrs by microdilution broth method; assay type: functional, organism-based
[41] = tested on: Aspergillus fumigatus; assay: Antifungal activity against Aspergillus fumigatus 231 after 24 to 48 hrs by microdilution broth method; assay type: functional, organism-based
[42] = tested on: Lichtheimia corymbifera; assay: Antifungal activity against Absidia corymbifera 272 after 24 to 48 hrs by microdilution broth method; assay type: functional, organism-based

| Compound | MIC [1] | MIC [2] | MIC [3] | MIC [4] | MIC [5] | MIC [6] | MIC [7] | MIC [8] | MIC [9] | MIC [10] | MIC [11] | MIC [12] | MIC [13] | MIC [14] | MIC [15] | MIC [16] | MIC [17] | MIC [18] | MIC [26] | MIC [27] | also measured |
| --- | --- | --- | --- | --- | --- | --- | --- | --- | --- | --- | --- | --- | --- | --- | --- | --- | --- | --- | --- | --- | --- |
| OC(Cn1cncn1)(Cn1cncn1)c1ccc(F)cc1F [FLUCONAZOLE] | > 500 µM | > 500 µM | 125 µM (≈ 38.3 µg/mL) | 250 µM (≈ 76.6 µg/mL) | 31.2 µM (≈ 9.57 µg/mL) | 500 µM (≈ 153 µg/mL) | 7.81 µM (≈ 2.39 µg/mL) | 125 µM (≈ 38.3 µg/mL) |  |  |  |  |  |  |  |  |  |  |  |  |  |
| CC12CCC(C/C1=N\NC(=O)c1ccc(C(F)(F)F)cc1)C2(C)C (centres undefined) |  |  |  |  |  |  |  |  | 4 µM (≈ 1.35 µg/mL) | 4 µM (≈ 1.35 µg/mL) | > 250 µM | > 250 µM | > 250 µM | > 250 µM | > 250 µM | > 250 µM | > 250 µM | > 250 µM |  |  | solubility [19]: Insoluble; IC50 [20]: > 100 µM; IC50 [21]: > 100 µM; IC50 [22]: > 100 µM; IC50 [23]: > 100 µM; IC50 [24]: > 100 µM; selectivity ratio [25]: > 25 |
| CC(C)=NNC(=O)c1ccc(C(F)(F)F)cc1 | > 500 µM | > 500 µM | > 500 µM | > 500 µM | > 500 µM | > 500 µM | > 500 µM | > 500 µM | > 125 µM | > 125 µM | > 125 µM | > 125 µM | 125 µM (≈ 30.5 µg/mL) | > 125 µM | > 125 µM | > 125 µM | > 125 µM | > 125 µM | > 500 µM | > 500 µM | MIC [28]: > 500 µM; MIC [29]: > 500 µM; MIC [30]: 500 µM (≈ 122 µg/mL); MIC [31]: > 500 µM; MIC [32]: 250 µM (≈ 61.1 µg/mL); MIC [33]: 500 µM (≈ 122 µg/mL); MIC [34]: > 500 µM; MIC [35]: > 500 µM; Activity [36]: inactive; Activity [37]: inactive; Activity [38]: inactive; Activity [39]: inactive; Activity [40]: inactive; Activity [41]: inactive; Activity [42]: inactive |
| NNC(=O)c1ccc(C(F)(F)F)cc1 | > 500 µM | > 500 µM | > 500 µM | > 500 µM | > 500 µM | > 500 µM | > 500 µM | > 500 µM | 250 µM (≈ 51 µg/mL) | 500 µM (≈ 102 µg/mL) | > 500 µM | > 500 µM | > 250 µM | > 250 µM | > 250 µM | > 250 µM | > 250 µM | > 250 µM | > 500 µM | > 500 µM | MIC [28]: > 500 µM; MIC [29]: > 500 µM; MIC [30]: > 500 µM; MIC [31]: > 500 µM; MIC [32]: > 500 µM; MIC [33]: > 500 µM; MIC [34]: > 500 µM; MIC [35]: > 500 µM |
| O=C(N/N=C/c1ccc(Br)cc1)c1ccc(C(F)(F)F)cc1 |  |  |  |  |  |  |  |  |  |  |  |  |  |  |  |  |  |  |  |  | solubility [19]: Insoluble |
| O=C(N/N=C/c1ccc(O)cc1)c1ccc(C(F)(F)F)cc1 | > 125 µM | > 125 µM | > 125 µM | > 125 µM | > 125 µM | > 125 µM | > 125 µM | > 125 µM | 125 µM (≈ 38.5 µg/mL) | 125 µM (≈ 38.5 µg/mL) | 250 µM (≈ 77.1 µg/mL) | 500 µM (≈ 154 µg/mL) | 62.5 µM (≈ 19.3 µg/mL) | 125 µM (≈ 38.5 µg/mL) | 125 µM (≈ 38.5 µg/mL) | 250 µM (≈ 77.1 µg/mL) | 500 µM (≈ 154 µg/mL) | 500 µM (≈ 154 µg/mL) | 250 µM (≈ 77.1 µg/mL) | 250 µM (≈ 77.1 µg/mL) | MIC [28]: 250 µM (≈ 77.1 µg/mL); MIC [29]: 250 µM (≈ 77.1 µg/mL); MIC [30]: 125 µM (≈ 38.5 µg/mL); MIC [31]: 125 µM (≈ 38.5 µg/mL); MIC [32]: > 250 µM; MIC [33]: > 250 µM; MIC [34]: > 250 µM; MIC [35]: > 250 µM; Activity [36]: inactive; Activity [37]: inactive; Activity [38]: inactive; Activity [39]: inactive; Activity [40]: inactive; Activity [41]: inactive; Activity [42]: inactive |

— ChEMBL document CHEMBL4177650, “Synthesis and biological evolution of hydrazones derived from 4-(trifluoromethyl)benzohydrazide” (Bioorg Med Chem Lett, 2017)
